# Laboratory results reported in patent US10759813B2, “Neprilysin inhibitors” (THERAVANCE BIOPHARMA R&D IP, LLC, priority 2010, dated 2020).
# Target: human neprilysin (EC 3.4.24.11; NEP) (Homo sapiens (Human), UniProt P08473)
# Experiment: In vitro enzyme inhibition assay at human NEP (fluorogenic peptide substrate)
# Type: biochemical
# Conditions: pKi values at human NEP, recombinant human NEP
# Experimental: In Vitro Assays for the Quantitation of Inhibitor Potencies at Human and Rat NEP, and Human ACE
# The inhibitory activities of compounds at human and rat neprilysin (EC 3.4.24.11; NEP) and human angiotensin converting enzyme (ACE) were determined using in vitro assays as described below.
# Recombinant human NEP and recombinant human ACE were obtained commercially (R&D Systems, Minneapolis, Minn., catalog numbers 1182-ZN and 929-ZN, respectively). The fluorogenic peptide substrate Mca-D-Arg-Arg-Leu-Dap-(Dnp)-OH (Medeiros et al. (1997) Braz. J. Med. Biol. Res. 30:1157-62; Anaspec, San Jose, Calif.) and Abz-Phe-Arg-Lys(Dnp)-Pro-OH (Araujo et al. (2000) Biochemistry 39:8519-8525; Bachem, Torrance, Calif.) were used in the NEP and ACE assays respectively.
# The assays were performed in 384-well white opaque plates at 37° C. using the fluorogenic peptide substrates at a concentration of 10 μM in Assay Buffer (NEP: 50 mM HEPES, pH 7.5, 100 mM NaCl, 0.01% polyethylene glycol sorbitan monolaurate (Tween-20), 10 μM ZnSO4; ACE: 50 mM HEPES, pH 7.5, 100 mM NaCl, 0.01% Tween-20, 1 μM ZnSO4).
# Test compounds were assayed over the range of concentrations from 10 μM to pM. Test compounds were added to the enzymes and incubated for 30 minute at 37° C. prior to initiating the reaction by the addition of substrate. Reactions were terminated after 20 minutes of incubation at 37° C. by the addition of glacial acetic acid to a final concentration of 3.6% (v/v).
# Plates were read on a fluorometer with excitation and emission wavelengths set to 320 nm and 405 nm, respectively. Inhibition constants were obtained by nonlinear regression of the data using the equation (GraphPad Software, Inc., San Diego, Calif.): v=v0/[1+(I/K′)] where v is the reaction rate, v0 is the uninhibited reaction rate, I is the inhibitor concentration and K′ is the apparent inhibition constant.
# Compounds of the invention were tested in this assay and found to have pKi values at human NEP as follows.
# Chain of human neprilysin (EC 3.4.24.11; NEP) (P08473 52-750): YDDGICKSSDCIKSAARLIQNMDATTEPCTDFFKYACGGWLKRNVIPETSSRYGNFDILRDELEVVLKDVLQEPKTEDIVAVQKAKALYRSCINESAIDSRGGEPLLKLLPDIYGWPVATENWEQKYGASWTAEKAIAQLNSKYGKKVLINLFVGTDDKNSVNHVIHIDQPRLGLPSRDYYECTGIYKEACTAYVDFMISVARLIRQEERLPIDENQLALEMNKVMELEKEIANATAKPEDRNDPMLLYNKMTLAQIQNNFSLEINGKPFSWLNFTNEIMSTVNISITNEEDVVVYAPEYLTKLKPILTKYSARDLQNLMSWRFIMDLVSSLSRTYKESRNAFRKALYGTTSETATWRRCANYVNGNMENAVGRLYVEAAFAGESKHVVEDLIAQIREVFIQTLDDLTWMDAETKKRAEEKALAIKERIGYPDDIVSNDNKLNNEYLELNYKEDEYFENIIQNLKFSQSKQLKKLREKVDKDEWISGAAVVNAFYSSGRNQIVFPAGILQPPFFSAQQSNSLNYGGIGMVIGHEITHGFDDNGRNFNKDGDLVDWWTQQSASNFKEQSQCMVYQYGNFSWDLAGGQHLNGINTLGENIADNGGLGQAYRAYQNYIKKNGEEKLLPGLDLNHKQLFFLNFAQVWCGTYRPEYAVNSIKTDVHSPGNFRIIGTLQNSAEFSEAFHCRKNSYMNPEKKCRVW
SMILES,Ki [nM],pKi
"Cc1nc2ccc(C(=O)N[C@H](Cc3ccc(-c4ccccc4)cc3)CC(O)C(=O)O)cc2o1 (stereo partly drawn) [Example 11-8, (R)-5-Biphenyl-4-yl-2-hydroxy-4-[(2-methyl-benzooxazole-6-carbonyl)-amino]-pentanoic acid]",12.6 to 100,
"O=C(N[C@H](Cc1ccc(-c2ccccc2)cc1)CC(O)C(=O)O)c1cnc2[nH]cnc2c1 (stereo partly drawn) [Example 11-9, (R)-5-Biphenyl-4-yl-2-hydroxy-4-[(3H-imidazo[4,5-b]pyridine-6-carbonyl)-amino]-pentanoic acid]",12.6 to 100,
"O=C(N[C@H](Cc1ccc(-c2ccccc2)cc1)CC(O)C(=O)O)c1cnc2nn[nH]c2c1 (stereo partly drawn) [Example 11-11, (R)-5-Biphenyl-4-yl-2-hydroxy-4-[(1H-[1,2,3]triazolo[4,5-b]pyridine-6-carbonyl)-amino]-pentanoic acid]",1.26 to 10,
"O=C(N[C@H](Cc1ccc(-c2ccccc2)cc1)C[C@H](O)C(=O)O)c1cnc2[nH]nnc2c1 [Example 11-13, (2S,4R)-5-Biphenyl-4-yl-2-hydroxy-4-[(3H-[1,2,3]triazolo[4,5-b]pyridine-6-carbonyl)-amino]-pentanoic acid]",,≥9.0
"O=C(O)c1ccc(C(=O)N[C@H](Cc2ccc(-c3ccccc3)cc2)CC(O)C(=O)O)o1 (stereo partly drawn) [Example 12-1, 5-((R)-1-Biphenyl-4-ylmethyl-3-carboxy-3-hydroxypropylcarbamoyl)furan-2-carboxylic acid]",1.26 to 10,
"O=C(O)c1ccc(C(=O)N[C@H](Cc2ccc(-c3ccccc3)cc2)CC(O)C(=O)O)s1 (stereo partly drawn) [Example 12-2, 5-((R)-1-Biphenyl-4-ylmethyl-3-carboxy-3-hydroxypropylcarbamoyl)thiophene-2-carboxylic acid]",1.26 to 10,
"COc1cc(C(=O)N[C@H](Cc2ccc(-c3ccccc3)cc2)C[C@@H](O)C(=O)O)on1 [Example 12-3, (2R,4R)-5-Biphenyl-4-yl-2-hydroxy-4-[(3-methoxyisoxazole-5-carbonyl)amino]-pentanoic acid]",1.26 to 10,
"O=C(N[C@H](Cc1ccc(-c2ccccc2)cc1)C[C@@H](O)C(=O)O)c1cc(-c2ccc(Cl)cc2)no1 [Example 12-4, (2R,4R)-5-Biphenyl-4-yl-4-{[3-(4-chlorophenyl)-isoxazole-5-carbonyl]-amino}-2-hydroxy-pentanoic acid]",,≥9.0
"COc1ccccc1C(=O)Nc1cc(C(=O)N[C@H](Cc2ccc(-c3ccccc3)cc2)C[C@@H](O)C(=O)O)on1 [Example 12-5, (2R,4R)-5-Biphenyl-4-yl-2-hydroxy-4-{[3-(2-methoxy-benzoylamino)-isoxazole-5-carbonyl]-amino}-pentanoic acid]",,≥9.0
"O=C(N[C@H](Cc1ccc(-c2ccccc2)cc1)C[C@@H](O)C(=O)O)c1cc(C2CCCCC2)no1 [Example 12-7, (2R,4R)-5-Biphenyl-4-yl-4-[(3-cyclohexyl-isoxazole-5-carbonyl)-amino]-2-hydroxy-pentanoic acid]",,≥9.0
"O=C(N[C@H](Cc1ccc(-c2ccccc2)cc1)C[C@@H](O)C(=O)O)c1cc(-c2cccc(F)c2)no1 [Example 12-8, (2R,4R)-5-Biphenyl-4-yl-4-{[3-(3-fluorophenyl)-isoxazole-5-carbonyl]-amino}-2-hydroxy-pentanoic acid]",,≥9.0
"Cn1cc(-c2cc(C(=O)N[C@H](Cc3ccc(-c4ccccc4)cc3)C[C@@H](O)C(=O)O)on2)cn1 [Example 12-10, (2R,4R)-5-Biphenyl-4-yl-2-hydroxy-4-{[3-(1-methyl-1H-pyrazol-4-yl)-isoxazole-5-carbonyl]-amino}-pentanoic acid]",1.26 to 10,
"O=C(N[C@H](Cc1ccc(-c2ccccc2)cc1)C[C@@H](O)C(=O)O)c1cc(-c2cc(Cl)ccc2Cl)no1 [Example 12-11, (2R,4R)-5-Biphenyl-4-yl-4-{[3-(2,5-dichlorophenyl)-isoxazole-5-carbonyl]-amino}-2-hydroxy-pentanoic acid]",,≥9.0
"O=C(N[C@H](Cc1ccc(-c2ccccc2)cc1)C[C@@H](O)C(=O)O)c1cc(-c2ccc(Cl)c(Cl)c2)no1 [Example 12-12, (2R,4R)-5-Biphenyl-4-yl-4-{[3-(3,4-dichlorophenyl)-isoxazole-5-carbonyl]-amino}-2-hydroxy-pentanoic acid]",1.26 to 10,
"O=C(O)c1cc(C(=O)N[C@H](Cc2ccc(-c3ccccc3)cc2)C[C@@H](O)C(=O)O)on1 [Example 12-14, 5-((1R,3R)-1-Biphenyl-4-ylmethyl-3-carboxy-3-hydroxy-propylcarbamoyl)-isoxazole-3-carboxylic acid]",12.6 to 100,
"O=C(N[C@H](Cc1ccc(-c2ccccc2)cc1)C[C@@H](O)C(=O)O)c1cc(CN2CCOCC2)on1 [Example 12-19, (2R,4R)-5-Biphenyl-4-yl-2-hydroxy-4-[(5-morpholin-4-ylmethyl-isoxazole-3-carbonyl)-amino]-pentanoic acid]",12.6 to 100,
"O=C(N[C@H](Cc1ccc(-c2ccccc2)cc1)C[C@@H](O)C(=O)O)c1cnc(-c2ccccc2)o1 [Example 12-23, (2R,4R)-5-Biphenyl-4-yl-2-hydroxy-4-[(2-phenyl-oxazole-5-carbonyl)-amino]-pentanoic acid]",1.26 to 10,
"CC(=O)Nc1ncc(C(=O)N[C@H](Cc2ccc(-c3ccccc3)cc2)C[C@@H](O)C(=O)O)s1 [Example 12-24, (2R,4R)-4-[(2-Acetylamino-thiazole-5-carbonyl)-amino]-5-biphenyl-4-yl-2-hydroxy-pentanoic acid]",12.6 to 100,
"COc1ccccc1C(=O)Nc1nc(C(=O)N[C@H](Cc2ccc(-c3ccccc3)cc2)C[C@@H](O)C(=O)O)cs1 [Example 12-25, (2R,4R)-5-Biphenyl-4-yl-2-hydroxy-4-{[2-(2-methoxy-benzoylamino)-thiazole-4-carbonyl]-amino}-pentanoic acid]",12.6 to 100,

# The next lines start with the values.
Ki [nM],pKi,SMILES
,≥9.0,"O=C(N[C@H](Cc1ccc(-c2ccccc2)cc1)C[C@@H](O)C(=O)O)c1cc(-c2ccccc2Cl)no1 [Example 12-6, (2R,4R)-5-Biphenyl-4-yl-4-{[3-(2-chlorophenyl)-isoxazole-5-carbonyl]-amino}-2-hydroxy-pentanoic acid]"
,≥9.0,"O=C(N[C@H](Cc1ccc(-c2ccccc2)cc1)C[C@@H](O)C(=O)O)c1cc(-c2ccccc2F)no1 [Example 12-9, (2R,4R)-5-Biphenyl-4-yl-4-{[3-(2-fluorophenyl)-isoxazole-5-carbonyl]-amino}-2-hydroxy-pentanoic acid]"
,≥9.0,"COc1ccccc1-c1cc(C(=O)N[C@H](Cc2ccc(-c3ccccc3)cc2)C[C@@H](O)C(=O)O)on1 [Example 12-13, (2R,4R)-5-Biphenyl-4-yl-2-hydroxy-4-{[3-(2-methoxy-phenyl)-isoxazole-5-carbonyl]-amino}-pentanoic acid]"
1.26 to 10,,"COc1ccccc1-c1cc(C(=O)N[C@H](Cc2ccc(-c3ccccc3)cc2)C[C@@H](O)C(=O)O)no1 [Example 12-15, (2R,4R)-5-Biphenyl-4-yl-2-hydroxy-4-{[5-(2-methoxy-phenyl)-isoxazole-3-carbonyl]-amino}-pentanoic acid]"
,≥9.0,"O=C(N[C@H](Cc1ccc(-c2ccccc2)cc1)C[C@@H](O)C(=O)O)c1cc(-c2ccccc2Cl)on1 [Example 12-16, (2R,4R)-5-Biphenyl-4-yl-4-{[5-(2-chlorophenyl)-isoxazole-3-carbonyl]-amino}-2-hydroxy-pentanoic acid]"
1.26 to 10,,"O=C(N[C@H](Cc1ccc(-c2ccccc2)cc1)C[C@@H](O)C(=O)O)c1cc(-c2ccc(Cl)cc2)on1 [Example 12-17, (2R,4R)-5-Biphenyl-4-yl-4-{[5-(4-chlorophenyl)-isoxazole-3-carbonyl]-amino}-2-hydroxy-pentanoic acid]"
1.26 to 10,,"COc1cccc(-c2cc(C(=O)N[C@H](Cc3ccc(-c4ccccc4)cc3)C[C@@H](O)C(=O)O)no2)c1 [Example 12-18, (2R,4R)-5-Biphenyl-4-yl-2-hydroxy-4-{[5-(3-methoxy-phenyl)-isoxazole-3-carbonyl]-amino}-pentanoic acid]"
1.26 to 10,,"COc1ccc(-c2cc(C(=O)N[C@H](Cc3ccc(-c4ccccc4)cc3)C[C@@H](O)C(=O)O)no2)cc1 [Example 12-20, (2R,4R)-5-Biphenyl-4-yl-2-hydroxy-4-{[5-(4-methoxy-phenyl)-isoxazole-3-carbonyl]-amino}-pentanoic acid]"
,≥9.0,"O=C(N[C@H](Cc1ccc(-c2ccccc2)cc1)C[C@@H](O)C(=O)O)c1cc(-c2ccccc2O)on1 [Example 12-21, (2R,4R)-5-Biphenyl-4-yl-2-hydroxy-4-{[5-(2-hydroxy-phenyl)-isoxazole-3-carbonyl]-amino}-pentanoic acid]"
,≥9.0,"O=C(N[C@H](Cc1ccc(-c2ccccc2)cc1)C[C@@H](O)C(=O)O)c1cc(NC(=O)c2ccccc2Cl)on1 [Example 12-22, (2R,4R)-5-Biphenyl-4-yl-4-{[5-(2-chlorobenzoylamino)-isoxazole-3-carbonyl]-amino}-2-hydroxy-pentanoic acid]"
